From patent publication US20170355705A1 (GlaxoSmithKline Intellectual Property (No.2) Limited, priority 2014, published 2017)

Biological target: T1, SIRT1 (Homo sapiens, UniProt Q96EB6)
T1 sequence (Q96EB6 1-747): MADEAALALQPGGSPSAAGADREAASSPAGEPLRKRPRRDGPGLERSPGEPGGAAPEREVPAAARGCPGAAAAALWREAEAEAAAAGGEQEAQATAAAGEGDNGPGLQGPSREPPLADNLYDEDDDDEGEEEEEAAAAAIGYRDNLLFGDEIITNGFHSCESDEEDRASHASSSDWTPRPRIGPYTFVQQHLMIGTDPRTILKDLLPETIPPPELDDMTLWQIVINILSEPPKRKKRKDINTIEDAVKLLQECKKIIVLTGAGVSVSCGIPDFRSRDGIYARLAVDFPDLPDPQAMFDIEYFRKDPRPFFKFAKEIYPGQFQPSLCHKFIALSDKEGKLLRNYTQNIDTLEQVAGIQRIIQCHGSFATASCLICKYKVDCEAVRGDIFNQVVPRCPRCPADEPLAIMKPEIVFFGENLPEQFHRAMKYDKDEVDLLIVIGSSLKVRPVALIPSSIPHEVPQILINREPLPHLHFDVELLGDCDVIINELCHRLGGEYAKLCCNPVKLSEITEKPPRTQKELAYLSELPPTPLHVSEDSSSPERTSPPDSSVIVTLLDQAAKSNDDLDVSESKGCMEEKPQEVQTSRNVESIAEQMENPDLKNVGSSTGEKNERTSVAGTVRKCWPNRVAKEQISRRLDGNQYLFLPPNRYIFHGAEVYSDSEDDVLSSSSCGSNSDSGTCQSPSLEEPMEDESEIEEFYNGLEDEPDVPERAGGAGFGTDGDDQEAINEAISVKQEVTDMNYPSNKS
Assay: Trp mass spectrometry assay of SIRT1 activity (EC1.5, percent maximum activation)
Assay type: biochemical
Settings: Trp mass spectrometry assay; for TRP Activity (EC1.5): EC1.5 = concentration giving 150% activation of SIRT1
Description: Mass spectrometry based assays were used to identify modulators of SIRT1 activity. […] The peptide was labeled with the fluorophore 5TMR (excitation 540 nm/emission 580 nm) at the C-terminus. The sequence of the peptide substrate was based on p53 with several modifications. In addition, the methionine residue naturally present in the sequence was replaced with the norleucine because the methionine may be susceptible to oxidation during synthesis and purification.
The Trp mass spectrometry assay was conducted as follows. […] The SIRT1 protein was obtained by cloning the SirT1 gene into a T7-promoter containing vector, which was then expressed in BL21(DE3) bacterial cells and purified as described in further detail below. Test compound was added at varying concentrations to this reaction mixture and the resulting reactions were monitored. After the 25 minute incubation with SIRT1, 10 μL of 10% formic acid was added to stop the reaction. The resulting reactions were sealed and frozen for later mass spec analysis. The relative SIRT1 activity was then determined by measuring the amount of O-acetyl-ADP-ribose (OAADPR) formed (or, alternatively, the amount of deacetylated Trp peptide generated) by the NAD-dependent sirtuin deacetylation reaction in the presence of varying concentrations of the test compound versus control reactions lacking the test compound. The degree to which the test agent activated deacetylation by SIRT1 was expressed as EC1.5 (i.e., the concentration of compound required to increase SIRT1 activity by 50% over the control lacking test compound), and Percent Maximum Activation (i.e., the maximum activity relative to control (100%) obtained for the test compound).
This time point was the same as that used for test compounds and, within the linear range, the endpoint represents a change in velocity.
For the above assay, SIRT1 protein was expressed and purified as follows. The SirT1 gene was cloned into a T7-promoter containing vector and transformed into BL21(DE3). The protein was expressed by induction with 1 mM IPTG as an N-terminal His-tag fusion protein at 18° C. overnight and harvested at 30,000×g. Cells were lysed with lysozyme in lysis buffer (50 mM Tris-HCl, 2 mM Tris[2-carboxyethyl]phosphine (TCEP), 10 μM ZnCl2, 200 mM NaCl) and further treated with sonication for 10 min for complete lysis. The protein was purified over a Ni-NTA column (Amersham) and fractions containing pure protein were pooled, concentrated and run over a sizing column (Sephadex S200 26/60 global). The peak containing soluble protein was collected and run on an Ion-exchange column (MonoQ). Gradient elution (200 mM-500 mM NaCl) yielded pure protein. This protein was concentrated and dialyzed against dialysis buffer (20 mM Tris-HCl, 2 mM TCEP) overnight. The protein was aliquoted and frozen at −80° C. until further use.
“NT” means not tested; “ND” means not determinable.

[1] = 0.5 μM peptide substrate, 120 μM βNAD+, 10 nM SIRT1, 25 minutes at 25° C.
[2] = percent maximum activation of SIRT1

SMILES | TRP MAX RESP (percent maximum fold activation) [1] | TRP Activity (EC1.5) | TRP MAX RESP (percent maximum fold activation) [2] | TRP Activity (EC1.5, concentration of test compound that results in 150% activation of SIRT1) [1]
Nc1ccc(-c2ccc3c(n2)N(C(=O)Nc2ccccn2)[C@H]2CCN3C2)cn1 [Example 299] | A (Fold activation ≧150%) |  |  | 
O=C(Nc1cccnc1)N1c2nc(-c3ccc(C(F)(F)F)nc3)ccc2N2CC[C@H]1C2 [Example 224, (4S)-N-(pyridin-3-yl)-7-(6-(trifluoromethyl)pyridin-3-yl)-3,4-dihydro-1,4-methanopyrido[2,3-b][1,4]diazepine-5(2H)-carboxamide] | A (Fold activation ≧150%) |  |  | B (EC1.5 1-25 μM)
CN(C)c1cc(-c2ccc3c(n2)N(C(=O)Nc2cnccn2)[C@H]2CCN3C2)ccn1 [Example 179, (4S)-7-(2-(dimethylamino)pyridin-4-yl)-N-(pyrazin-2-yl)-3,4-dihydro-1,4-methanopyrido[2,3-b][1,4]diazepine-5(2H)-carboxamide] |  | B (EC1.5 1-25 μM) | A (Fold activation ≧150%) | 
Cc1cc(-c2nc3c(c(C)c2C)N2CC[C@@H](C2)N3C(=O)Nc2ccccn2)ccn1 [Example 25, (4S)-8,9-dimethyl-7-(2-methylpyridin-4-yl)-N-(pyridin-2-yl)-3,4-dihydro-1,4-methanopyrido[2,3-b][1,4]diazepine-5(2H)-carboxamide] |  | B (EC1.5 1-25 μM) | A (Fold activation ≧150%) | 
Cc1cc(-c2ccc3c(n2)N(C(=O)Nc2cc4cn[nH]c4cn2)[C@H]2CCN3C2)ccn1 [Example 130, (4S)-7-(2-methylpyridin-4-yl)-N-(1H-pyrazolo[3,4-c]pyridin-5-yl)-3,4-dihydro-1,4-methanopyrido[2,3-b][1,4]diazepine-5(2H)-carboxamide] |  | A (EC1.5<1 μM) | A (Fold activation ≧150%) | 
Cc1nn(C)cc1-c1ccnc(NC(=O)N2c3nc(-c4ccnc(C(F)(F)F)c4)ccc3N3CC[C@H]2C3)c1 [Example 324] | A (Fold activation ≧150%) |  |  | 
CCc1cncc(NC(=O)N2c3nc(-c4ccnc(C)c4)ccc3N3CC[C@H]2C3)n1 [Example 122, (4S)-N-(6-ethylpyrazin-2-yl)-7-(2-methylpyridin-4-yl)-3,4-dihydro-1,4-methanopyrido[2,3-b][1,4]diazepine-5(2H)-carboxamide] |  | A (EC1.5<1 μM) | A (Fold activation ≧150%) | 

Continued, values first:

TRP MAX RESP (percent maximum fold activation) [1] | TRP Activity (EC1.5) | TRP MAX RESP (percent maximum fold activation) [2] | TRP Activity (EC1.5, concentration of test compound that results in 150% activation of SIRT1) [1] | SMILES
 | A (EC1.5<1 μM) | A (Fold activation ≧150%) |  | N#Cc1cc2c(nc1-c1cccc(C(F)(F)F)c1)N(C(=O)Nc1ccnc(OC[C@@H](O)CO)c1)[C@H]1CCN2C1 [Example 104, (4S)-8-cyano-N-(2-((S)-2,3-dihydroxypropoxy)pyridin-4-yl)-7-(3-(trifluoromethyl)phenyl)-3,4-dihydro-1,4-methanopyrido[2,3-b][1,4]diazepine-5(2H)-carboxamide]
 | B (EC1.5 1-25 μM) | A (Fold activation ≧150%) |  | Cc1ccc(-c2nc3c(cc2C#N)N2CC[C@@H](C2)N3C(=O)Nc2cccnc2)cn1 [Example 10, (4S)-8-cyano-7-(6-methylpyridin-3-yl)-N-(pyridin-3-yl)-3,4-dihydro-1,4-methanopyrido[2,3-b][1,4]diazepine-5(2H)-carboxamide]
 | A (EC1.5<1 μM) | A (Fold activation ≧150%) |  | O=C(Nc1cncc(OC[C@H](O)CO)n1)N1c2nc(-c3cccc(C(F)(F)F)c3)ccc2N2CC[C@H]1C2 [Example 128, (4S)-N-(6-((R)-2,3-dihydroxypropoxy)pyrazin-2-yl)-7-(3-(trifluoromethyl)phenyl)-3,4-dihydro-1,4-methanopyrido[2,3-b][1,4]diazepine-5(2H)-carboxamide]
